Measured values taken from US20250082781A1, “METHODS OF LOWERING BLOOD GLUCOSE AND TREATING TYPE 2 DIABETES BY ACTIVATION OF PDE4D3” (Salk Institute for Biological Studies, priority 2021, published 2025).

Key:
[1] = system: blood glucose levels; assay: Blood glucose levels in ob/ob mice; type: in vivo, mouse; settings: ad lib fed ob/ob mice, atglistatin 120 mg/kg p.o
Procedure: (§1) Mice were kept in 12 h light/dark cycle in a temperature-controlled environment. Mice had free access to food and water unless noted otherwise. C57/B6 mice background was used unless noted otherwise. C57BL/6J and ob/ob (000632-B6. Cg-Lepob/J) male mice were obtained from Jackson Laboratory. PDE4D knock-out mice (034588-UCD) were obtained from MMRRC. For diet-induced obesity (DIO) studies, mice were fed a high fat diet (HFD) (60% fat, F3282; Bio-Serv) for minimum of 12 weeks to induce insulin resistance when diet-induced obese model is used. Insulin levels and blood glucose levels were monitored to confirm insulin resistance. To generate adipose-specific FGFR1 deletion, adiponectin-cre mice (B6; FVB-Tg (Adipoq-cre)1Evdr/J; Stock: 010803) were crossed to Fgfr1 flox/flox (B6.129S4-Fgfr1tm5.1Sor/J; Stock: 00767) mice. For AAV mediated expression of target proteins in adipose tissue, 5×10E+11 genomic copies of AAV were injected via tail vein or retro-orbital route.
(§2) Recombinant FGF1 (rFGF1) was dissolved in phosphate-buffered saline (PBS) at a concentration of 0.2 mg/ml and was injected subcutaneously at a 0.5 mg kg^−1 dose. Blood glucose was monitored at indicated time points after injection. For initial measurements (2-4 h) food was removed after injection to exclude any indirect effects stemming from anorexigenic effects of FGF1. PDE4 inhibitor roflumilast stock in DMSO was diluted at 1 mg/ml in 30% captisol, pH 10 and delivered to mice thorough oral gavage at 5 mg kg^−1 dose. PDE3 inhibitor cilostamide stock in DMSO was diluted at 2 mg/ml in 30% captisol and delivered through intraperitoneal injection at 10 mg kg^−1 dose.

[2] = system: blood glucose levels; assay: Blood glucose levels in DIO mice; type: in vivo, mouse; settings: roflumilast 5 mg/kg p.o.
Procedure: as §1, §2

[3] = system: serum FFA levels; assay: Serum FFA levels in DIO mice; type: in vivo, mouse; settings: ad lib fed DIO mice, roflumilast 5 mg/kg p.o., 1 h
Procedure: as §1, §2

[4] = system: HSL phosphorylation at S660; assay: Western blot of pHSL-S660 in 3T3-L1 adipocytes; type: cell-based; settings: basal and ISO-stimulated cells, roflumilast 2 μM
Procedure: Tissues were lysed in cold lysis buffer (50 mM Tris, pH 7.5, 150 mM NaCl, 1% NP40, 0.5% NaDoc, 0.1% SDS, 5% glycerol, 1 mM EDTA, protease and phosphatase inhibitors (complete and PhosSTOP (Roche)) by homogenization by bead-beater for 30 s. Samples were cleared for 10 min at 18,000 g at 4° C. and the middle clear phase was transferred to new tubes. A second 30 min centrifugation was performed and the middle clear phase was transferred to new tubes. Five ul protein extract was used for BCA assay to determine protein concentration. Samples were boiled in Laemmli buffer. SDS-PAGE and blotting were performed using gradient gels and Trans-Blot Turbo Transfer System (Bio-Rad). Antibodies used were PDE4D (12918-1-AP, Proteintech), pHSL-660 (4126S, Cell signaling), HSL (4107S, Cell Signaling), tubulin (CP06, Millipore Sigma), and GFP (A01388, GenScript). PDE4D3-pS44 phospho-specific antibody was generated using PDE4D3-S44 FRRHpSWISFDVDNGTSAGR peptide (SEQ ID NO: 20) (Mackenzie et al., 2002) by Pocono Rabbit Farm, using 70-day rabbit antibody production protocol and purified via affinity purification. Primary antibodies were incubated for 2 h at room temperature (RT) or overnight (ON) at 4° C. Blots were developed using SuperSignal West Pico PLUS Chemiluminescent Substrate (ThermoFisher Scientific) and imaged with BioRad GelDoc system.

[5] = Serum insulin levels in DIO mice; type: in vivo, mouse; settings: ad lib fed DIO mice, roflumilast 5 mg/kg p.o., 1 h
Procedure: as §1
Recombinant FGF1 (rFGF1) was dissolved in phosphate-buffered saline (PBS) at a concentration of 0.2 mg/ml and was injected subcutaneously at a 0.5 mg kg^−1 dose. Blood glucose was monitored at indicated time points after injection. For initial measurements (2-4 h) food was removed after injection to exclude any indirect effects stemming from anorexigenic effects of FGF1. […]

[6] = biological target: FGFR1 on mouse adipocytes (mouse) (UniProt P16092); assay: cell-based or functional assay
[7] = biological target: T1, GFP-tagged perilipin (perilipin-GFP), Q8CGN5
T1 chain: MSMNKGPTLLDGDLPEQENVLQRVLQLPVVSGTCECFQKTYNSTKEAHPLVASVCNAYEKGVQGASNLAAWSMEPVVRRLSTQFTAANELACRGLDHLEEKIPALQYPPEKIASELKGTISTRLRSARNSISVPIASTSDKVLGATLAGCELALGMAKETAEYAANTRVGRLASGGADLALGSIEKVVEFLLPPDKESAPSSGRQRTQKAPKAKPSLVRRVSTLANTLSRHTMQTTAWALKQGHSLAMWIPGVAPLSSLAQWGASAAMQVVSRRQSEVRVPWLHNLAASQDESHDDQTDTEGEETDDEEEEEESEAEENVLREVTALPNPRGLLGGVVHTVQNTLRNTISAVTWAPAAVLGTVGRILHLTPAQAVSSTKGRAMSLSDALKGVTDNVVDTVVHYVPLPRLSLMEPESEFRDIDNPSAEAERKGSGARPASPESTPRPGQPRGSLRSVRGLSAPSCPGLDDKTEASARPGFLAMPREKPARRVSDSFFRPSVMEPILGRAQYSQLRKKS

Chain of UniProt P16092 (P16092 22-822): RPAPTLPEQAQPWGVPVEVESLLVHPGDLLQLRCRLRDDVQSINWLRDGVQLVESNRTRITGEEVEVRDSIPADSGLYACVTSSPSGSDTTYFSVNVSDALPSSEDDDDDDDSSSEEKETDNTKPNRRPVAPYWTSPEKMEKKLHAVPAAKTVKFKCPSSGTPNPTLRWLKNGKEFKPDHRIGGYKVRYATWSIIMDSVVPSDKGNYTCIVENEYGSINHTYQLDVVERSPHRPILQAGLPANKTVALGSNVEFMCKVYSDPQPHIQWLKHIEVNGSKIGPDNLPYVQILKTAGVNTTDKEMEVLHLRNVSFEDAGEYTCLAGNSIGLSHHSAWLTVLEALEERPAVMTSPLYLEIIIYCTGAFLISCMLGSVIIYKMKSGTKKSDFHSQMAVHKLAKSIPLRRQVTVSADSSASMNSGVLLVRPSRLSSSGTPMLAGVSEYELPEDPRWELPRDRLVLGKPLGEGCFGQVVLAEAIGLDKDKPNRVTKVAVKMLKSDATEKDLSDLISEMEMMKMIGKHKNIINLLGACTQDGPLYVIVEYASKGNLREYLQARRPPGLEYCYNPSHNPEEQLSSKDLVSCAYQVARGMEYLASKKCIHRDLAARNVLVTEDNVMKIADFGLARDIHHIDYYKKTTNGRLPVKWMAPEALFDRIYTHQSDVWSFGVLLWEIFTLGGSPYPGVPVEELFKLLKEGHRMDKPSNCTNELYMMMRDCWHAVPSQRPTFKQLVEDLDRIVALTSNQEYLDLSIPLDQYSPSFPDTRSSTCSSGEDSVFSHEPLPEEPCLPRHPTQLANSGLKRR

## CN(C)C(=O)Nc1cccc(-c2ccc(N(C)C)cc2)c1 [Atglistatin, reference compound]
[1]
  blood glucose levels: rapidly lowered blood glucose levels

## O=C(Nc1c(Cl)cncc1Cl)c1ccc(OC(F)F)c(OCC2CC2)c1 [roflumilast, reference compound]
[2]; ad lib fed DIO mice
  blood glucose: transiently increased
[2]; fasted DIO mice
  blood glucose levels: more sustained increase in blood glucose levels
[3]
  serum FFA: transiently increased
[4]
  ability of FGF1 to suppress HSL phosphorylation in presence of roflumilast: lost
[5]
  insulin levels: transiently increased

## Recombinant FGF1 (rFGF1) (ligand)
[6]
  serum FFA levels in DIO adR1WT and adR1KO mice: 30%

B1: mCherry-tagged HSL (HSL-mCherry) (protein)
chain: MDLRTMTQSLVTLAEDNMAFFSSQGPGETARRLSNVFAGVREQALGLEPTLGQLLGVAHHFDLDTETPANGYRSLVHTARCCLAHLLHKSRYVASNRKSIFFRASHNLAELEAYLAALTQLRAMAYYAQRLLTINRPGVLFFEGDEGLTADFLQEYVTLHKGCFYGRCLGFQFTPAIRPFLQTLSIGLVSFGEHYKRNETGLSVTASSLFTGGRFAIDPELRGAEFERIIQNLDVHFWKAFWNITEIEVLSSLANMASTTVRVSRLLSLPPEAFEMPLTSDPRLTVTISPPLAHTGPAPVLARLISYDLREGQDSKVLNSLAKSEGPRLELRPRPHQAPRSRALVVHIHGGGFVAQTSKSHEPYLKNWAQELGVPIFSIDYSLAPEAPFPRALEECFFAYCWAVKHCDLLGSTGERICLAGDSAGGNLCITVSLRAAAYGVRVPDGIMAAYPVTTLQSSASPSRLLSLMDPLLPLSVLSKCVSAYSGTEAEDHFDSDQKALGVMGLVQRDTSLFLRDLRLGASSWLNSFLELSGRKPQKTTSPTAESVRPTESMRRSVSEAALAQPEGLLGTDTLKKLTIKDLSNSEPSDSPEMSQSMETLGPSTPSDVNFFLRPGNSQEEAEAKDEVRPMDGVPRVRAAFPEGFHPRRSSQGVLHMPLYTSPIVKNPFMSPLLAPDSMLKTLPPVHLVACALDPMLDDSVMFARRLRDLGQPVTLKVVEDLPHGFLSLAALCRETRQATEFCVQRIRLILTPPAAPLN
[7]
  co-localization of perilipin-GFP and HSL-mCherry in live 3T3-L1 adipocytes (fluorescence overlap, confocal microscopy): FGF1 reduced the isoproterenol-induced co-localization of perilipin-GFP and HSL-mCherry
